# Reference: patent US20170313665A1, “HYDROXYALKYL-SUBSTITUTED PHENYLTRIAZOLE DERIVATIVES AND USES THEREOF” (BAYER PHARMA AKTIENGESELLSCHAFT, priority 2014, published 2017)
# Tests used:
# Wistar rats = experiment: Diuresis investigations in conscious rats kept in metabolism cages; format: in vivo, rat
# Description: Wistar rats (220-450 g body weight) are kept with free access to feed (Altromin) and drinking water. During the experiment, the animals are kept with free access to drinking water for 4 to 8 or up to 24 hours individually in metabolism cages suitable for rats of this weight class (Tecniplast Deutschland GmbH, D-82383 Hohenpeiβenberg). At the beginning of the experiment, the animals are administered the test substance in a volume of 1 to 3 ml/kg body weight of a suitable solvent by means of gavage into the stomach. Control animals only receive solvent. Controls and substance tests are carried out in parallel on the same day. Control groups and substance-dose groups each consist of 4 to 8 animals. During the experiment, the urine excreted by the animals is collected continuously in a receiver at the base of the cage. The volume of urine per time unit is determined separately for each animal, and the concentration of urinary electrolytes is measured by standard methods of flame photometry. Before the beginning of the experiment, the body weight of the individual animals is determined.
# human V1a receptor = target: T1, human V1a receptor (Homo sapiens, UniProt P37288); experiment: Cellular in vitro assay for vasopressin receptor activity, V1a receptor cell line (aequorin luminescence); format: cell-based; details: CHO cell line transfected with human V1a receptor; [Arg8]-vasopressin at EC50; read-out: IC50 hV1a
# T1 construct: expressed in transfected cells; host or cells: CHO K1 (ATCC), also stably transfected with a modified aequorin
# T1 sequence (P37288 whole entry): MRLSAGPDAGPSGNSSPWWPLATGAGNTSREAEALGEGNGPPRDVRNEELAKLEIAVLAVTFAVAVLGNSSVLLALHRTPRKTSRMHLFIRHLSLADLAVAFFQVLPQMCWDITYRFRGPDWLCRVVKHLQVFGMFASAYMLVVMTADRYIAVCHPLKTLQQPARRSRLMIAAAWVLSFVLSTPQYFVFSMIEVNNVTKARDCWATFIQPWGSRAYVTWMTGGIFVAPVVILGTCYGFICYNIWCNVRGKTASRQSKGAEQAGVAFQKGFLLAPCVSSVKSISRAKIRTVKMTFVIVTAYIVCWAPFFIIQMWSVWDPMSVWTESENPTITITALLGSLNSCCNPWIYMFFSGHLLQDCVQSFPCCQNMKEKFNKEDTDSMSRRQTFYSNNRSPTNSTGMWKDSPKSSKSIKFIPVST
# Description: The identification of agonists and antagonists of the V1a and V2 vasopressin receptors from humans, rats and dogs as well as the quantification of the activity of the compounds of the invention is carried out using recombinant cell lines. These cell lines originally derive from a hamster's ovary epithelial cell (Chinese Hamster Ovary, CHO K1, ATCC: American Type Culture Collection, Manassas, Va. 20108, USA). The test cell lines constitutively express the human, rat or dog V1a or V2 receptors. […] The resulting vasopressin receptor cells react to stimulation of the recombinantly expressed V1a receptors by intracellular release of calcium ions, which can be quantified by the resulting photoprotein luminescence. […] The bioluminescence of the cell lines is detected using a suitable luminometer [Milligan G, Marshall F, Rees S, Trends in Pharmacological Sciences 17, 235-237 (1996)].
# On the day before the assay, the cells are plated out in culture medium (DMEM/F12, 2% FCS, 2 mM glutamine, 10 mM HEPES, 5 μg/ml coelenterazine) in 384-well microtiter plates and kept in a cell incubator (96% humidity, 5% v/v CO2, 37° C.). […] The resulting light signal is measured immediately in the luminometer. […]
# [1] = dosage p.o. 0.3 mg/kg, 0.3 mg/kg
structure (smiles),measurement,setting,value
"COc1ccccc1-n1nc(Cn2nc(-c3ccc(Cl)cc3)n(C[C@H](O)C(F)(F)F)c2=O)nc1C(C)O (single isomer, unassigned) [Example 11]",Urinary volume [% vs. control = 100%],Wistar rats; [1],159 % vs. control = 100%
same,Urinary volume [% vs. control = 100%],"Wistar rats; dosage p.o. 3.0 mg/kg, 3 mg/kg",443 % vs. control = 100%
"COc1ccccc1-n1nc(Cn2nc(-c3ccc(Cl)cc3)n(C[C@H](O)C(F)(F)F)c2=O)nc1C(C)O (single isomer, unassigned) [Example 12]",Urinary volume [% vs. control = 100%],Wistar rats; [1],96 % vs. control = 100%
same,Urinary volume [% vs. control = 100%],"Wistar rats; dosage p.o. 3.0 mg/kg, 3 mg/kg",323 % vs. control = 100%
"CC(O)c1nc(Cn2nc(-c3ccc(Cl)cc3)n(C[C@H](O)C(F)(F)F)c2=O)nn1-c1cc(F)cc(Cl)c1 (single isomer, unassigned) [Example 14]",Urinary volume [% vs. control = 100%],Wistar rats; dosage p.o. 1.0 mg/kg,753 % vs. control = 100%
"CC(O)c1nc(Cn2nc(-c3ccc(Cl)cc3)n(C[C@H](O)C(F)(F)F)c2=O)nn1-c1cc(F)cc(Cl)c1 (single isomer, unassigned) [Example 15]",Urinary volume [% vs. control = 100%],Wistar rats; dosage p.o. 0.3 mg/kg,412 % vs. control = 100%
same,Urinary volume [% vs. control = 100%],Wistar rats; dosage p.o. 3.0 mg/kg,1085 % vs. control = 100%
"CC(O)c1nc(Cn2nc(-c3ccc(Cl)cc3)n(C[C@H](O)C(F)(F)F)c2=O)nn1-c1cc(F)ccc1Cl (single isomer, unassigned) [Example 59]",IC50,human V1a receptor,0.5 nM
"CC(O)c1nc(Cn2nc(-c3ccc(Cl)cc3)n(C[C@H](O)C(F)(F)F)c2=O)nn1-c1cc(F)ccc1Cl (single isomer, unassigned) [Example 60]",IC50,human V1a receptor,0.5 nM
"C[C@H](O)c1nc(Cn2nc(-c3ccc(Cl)cc3)n(C[C@H](O)C(F)(F)F)c2=O)nn1-c1cccc(F)c1 [Example 76, 5-(4-Chlorophenyl)-2-({1-(3-fluorophenyl)-5-[(1 S)-1-hydroxyethyl]-1H-1,2,4-triazol-3-yl}methyl)-4-[(2S)-3,3,3-trifluoro-2-hydroxypropyl]-2,4-dihydro-3H-1,2,4-triazol-3-one]",Urinary volume [% vs. control = 100%],Wistar rats; dosage p.o. 3.0 mg/kg,1257 % vs. control = 100%
"C[C@H](O)c1nc(Cn2nc(-c3ccc(Cl)cc3)n(C[C@H](O)C(F)(F)F)c2=O)nn1-c1cccc(Cl)c1 [Example 79, 5-(4-Chlorophenyl)-2-({1-(3-chlorophenyl)-5-[(1S)-1-hydroxyethyl]-1H-1,2,4-triazol-3-yl}methyl)-4-[(2S)-3,3,3-trifluoro-2-hydroxypropyl]-2,4-dihydro-3H-1,2,4-triazol-3-one]",Urinary volume [% vs. control = 100%],Wistar rats; dosage p.o. 3.0 mg/kg,1312 % vs. control = 100%
"C[C@@H](O)c1nc(Cn2nc(-c3ccc(Cl)cc3)n(C[C@H](O)C(F)(F)F)c2=O)nn1-c1ccccc1Cl [Example 83, 5-(4-Chlorophenyl)-2-({1-(2-chlorophenyl)-5-[(1R)-1-hydroxyethyl]-1H-1,2,4-triazol-3-yl}-methyl)-4-[(2S)-3,3,3-trifluoro-2-hydroxypropyl]-2,4-dihydro-3H-1,2,4-triazol-3-one]",Urinary volume [% vs. control = 100%],Wistar rats; dosage p.o. 3.0 mg/kg,1094 % vs. control = 100%
